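Method: 48-hour compound exposure of cells in 96-well plates, five concentrations, linear interpolation of endpoints. GI50 is the concentration that inhibits growth by half.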 Active and inactive are the calls of the source. No stated cut-off is given here; in the data, active = GI50 up to about 1.1 µM and inactive = higher.

Common to all, as to assay: growth of human tumour cells (NCI), 48 h
Test [1] deals with NCI-H522.
In test [2] the test system is LXFL 529.
Test [3] concerns EKVX.
The test system of test [4] is SW-620.
Test [5] relates to KM12.
The test system of test [6] is K562.
Test [7] has as its system UACC-62.
Test [8] deals with SK-MEL-5.
Test [9] relates to UO-31.
In test [10] the test system is SF-268.
The test system of test [11] is OVCAR-3.
The subject of test [12] is IGROV-1.
In test [13] the test system is CAKI-1.
In test [14] the test system is MDA-MB-435.
Test [15] concerns Hs-578T.
The subject of test [16] is RPMI-8226.
Test [17] has as its system BT-549.
Test [18] has as its system MDA-N.
Test [19] deals with A498.
The subject of test [20] is MDA-MB-231.

In the case of `Cn1cc(NC(=O)c2cc(NC(=O)CCCCCCCCCCC(=O)Nc3cc(C(=O)Nc4cc(C(=O)NCCC(=N)N)n(C)c4)n(C)c3)cn2C)cc1C(=O)NCCC(=N)N`, the GI50 was 12.1 µM (inactive) in test [1]; 16.9 µM (inactive) in test [2]; 31 µM (inactive) in [3]; 17.9 µM (inactive) in test [4]; 12.4 µM (inactive) in test [5]; 74 µM (inactive) in test [6]. Moreover, the GI50 in [7] is 7.5 µM (inactive); in test [8] it was 15.8 µM (inactive); in test [9] it was > 100 µM (inactive); in test [10] it was 30.6 µM (inactive); in test [11], 52.7 µM (inactive); in test [12], 24.5 µM (inactive). In addition, the GI50 in [13] was 46.8 µM (inactive).
Regarding `CC1=CC(N2C(=O)C(C)=CC2O)NC1=O` (centres undefined), the GI50 in [1], in test [2], in test [3], in test [4], in [5] and in test [9] was > 100 µM (inactive) in each case. Further, the GI50 in test [10], in [11] and in [13] was > 100 µM (inactive) throughout.
Take `Cc1ccc(S(=O)(=O)c2ccsc2NC(=O)c2ccccc2)cc1`: the GI50 in test [1] is > 100 µM (inactive); in test [14], 3.11 µM (inactive); in [15], 17.3 µM (inactive); in test [3], > 55.6 µM (inactive); in [16], > 100 µM (inactive); in [4], > 100 µM (inactive). In addition, the GI50 in test [5] is > 100 µM (inactive); in [6] it was 2.17 µM (inactive); in [17], > 100 µM (inactive); in [7] it was > 100 µM (inactive); in [8], 12.7 µM (inactive); in test [9] it was > 49.3 µM (inactive). In addition, the GI50 in test [18] is 3.39 µM (inactive); in test [19] it was 45.9 µM (inactive); in test [10], 31.3 µM (inactive); in test [11] it was > 100 µM (inactive); in [12], > 43.3 µM (inactive); in [13] it was 40.7 µM (inactive). In addition, the GI50 in test [20] is 14.8 µM (inactive).
For `CCOC(=O)C1=NN(c2ccc([N+](=O)[O-])cc2)[C@@]2(C)C[C@]3(c4ccccc4)N(c4ccc([N+](=O)[O-])cc4)N=C(C(=O)OCC)N3c3ccccc3N12`, the GI50 in test [1], in test [14], in [15], in [3], in test [16] and in test [4] was > 100 µM (inactive) each time. In addition, the GI50 in [5], in test [6], in test [17], in [7], in [8] and in test [9] was > 100 µM (inactive) throughout. The GI50 in test [18], in test [19], in [10], in test [11], in [12] and in test [13] was > 100 µM (inactive) in each case. Moreover, in [20], the GI50 was 4.51 µM (inactive).
Turning to `COC1=CC(=O)N(C)C(O)C1(C#N)OC1OC(CO)C(O)C(O)C1O` (centres undefined), the GI50 in [1], in [14], in [15], in test [3], in test [16] and in test [4] was > 100 µM (inactive) each time. Moreover, the GI50 was > 100 µM (inactive) in [5]; > 10 µM (inactive) in test [6]; > 100 µM (inactive) in [17]; > 100 µM (inactive) in test [7]; > 100 µM (inactive) in test [8]; > 100 µM (inactive) in test [9]. In addition, the GI50 in test [18], in test [19], in test [10], in test [11], in test [12] and in [13] was > 100 µM (inactive) each time. Besides, the GI50 in test [20] is > 100 µM (inactive).
Take `Cc1c(F)c(N)c2c(=O)cc(-c3ccc(N)c(F)c3)oc2c1F` [AMINOFLAVONE]: the GI50 in [1] was 9.71 µM (inactive); in test [14] it was 43.5 µM (inactive); in test [15], 38.1 µM (inactive); in test [3], 13.7 µM (inactive); in [16], 14.9 µM (inactive); in test [4] it was 0.0305 µM (active). Moreover, the GI50 was 21.9 µM (inactive) in [5]; 0.279 µM (active) in test [6]; 17.5 µM (inactive) in [17]; 4.73 µM (inactive) in test [7]; 20.4 µM (inactive) in test [8]; 5.33 µM (inactive) in [9]. Also, the GI50 is 29.4 µM (inactive) in test [18]; 0.366 µM (active) in test [19]; 23.1 µM (inactive) in [10]; 0.458 µM (active) in test [11]; 0.0723 µM (active) in [12]; < 0.0131 µM (active) in [13]. In test [20], the GI50 is 18.7 µM (inactive).
Regarding `COc1nc2c(nc(N)n2C2OCC(O)C(O)C2O)c(=O)n1C` (centres undefined), the GI50 in test [1], in test [2], in test [3], in test [4], in test [5] and in test [6] was > 100 µM (inactive) throughout. The GI50 in test [7], in [8], in test [9], in [19], in test [10] and in test [11] was > 100 µM (inactive) each time. The GI50 in test [12] and in test [13] was > 100 µM (inactive) in each case.
As for `O=C1OC2c3ccccc3C(=O)C2(c2ccccc2)N1c1ccccc1` (centres undefined), the GI50 in test [1] is > 200 µM (inactive); in [14], > 200 µM (inactive); in [15], > 200 µM (inactive); in test [3], > 200 µM (inactive); in [16], 132 µM (inactive); in [4] it was > 200 µM (inactive). Besides, the GI50 is > 200 µM (inactive) in [5]; 139 µM (inactive) in test [6]; > 200 µM (inactive) in test [17]; > 200 µM (inactive) in [7]; > 200 µM (inactive) in [8]; 72.6 µM (inactive) in [9]. In addition, the GI50 in test [18] was > 200 µM (inactive); in test [19], > 200 µM (inactive); in test [10], > 200 µM (inactive); in test [11], > 200 µM (inactive); in test [12] it was > 200 µM (inactive); in test [13], 121 µM (inactive). Moreover, the GI50 in test [20] is > 200 µM (inactive).
On to `Cc1cc(CC(=O)NCCO)n(CCO)c(=O)c1`, for which the GI50 in test [1], in test [2], in test [4], in test [5], in test [6] and in test [7] was > 100 µM (inactive) throughout. The GI50 in test [8], in [9], in [10], in test [11], in [12] and in [13] was > 100 µM (inactive) in each case.
Turning to `O=c1nc(/C=C/c2ccccc2Cl)cc2n1CCN2CCO`, the GI50 in test [1] is 24.3 µM (inactive); in test [2], 55.1 µM (inactive); in test [3] it was > 100 µM (inactive); in [16], > 100 µM (inactive); in test [4], > 100 µM (inactive); in test [5], 59.4 µM (inactive). Further, the GI50 in test [6] was 90.2 µM (inactive); in test [7], > 100 µM (inactive); in test [9], > 100 µM (inactive); in [10], 67.6 µM (inactive); in test [11] it was 28.6 µM (inactive); in [12] it was > 100 µM (inactive). For the same compound, the GI50 in [13] is > 100 µM (inactive).
Turning to `O=C(O)c1nc(-c2ccccc2)[nH]c1C(=O)O`, the GI50 was 13.1 µM (inactive) in test [1]; 8.87 µM (inactive) in test [14]; 24.8 µM (inactive) in test [15]; 17.4 µM (inactive) in [3]; 1.84 µM (inactive) in test [16]; 2.47 µM (inactive) in [4]. Besides, the GI50 is 4.65 µM (inactive) in test [5]; 3.72 µM (inactive) in test [6]; 17.4 µM (inactive) in [17]; 17.2 µM (inactive) in test [7]; 15.1 µM (inactive) in test [8]; 12.1 µM (inactive) in test [9]. The GI50 is 11.8 µM (inactive) in test [18]; 15.4 µM (inactive) in [19]; 16 µM (inactive) in [10]; 11.8 µM (inactive) in test [11]; 11.7 µM (inactive) in [12]; 14.4 µM (inactive) in [13]. Besides, the GI50 in test [20] is 5.62 µM (inactive).
As to `C[N+]1(CCCCN2c3ccccc3Sc3cc(N=[N+]=[N-])ccc32)CCN(C(=O)CCNC(=O)Cc2ccc(C(=O)c3ccccc3)cc2)CC1`, the GI50 in test [1] is 24.4 µM (inactive); in test [14] it was 26.4 µM (inactive); in [15], 34 µM (inactive); in test [3] it was 31.9 µM (inactive); in test [16] it was 18.7 µM (inactive); in test [4], 29.2 µM (inactive). In addition, the GI50 was 24.3 µM (inactive) in test [5]; 7.19 µM (inactive) in test [6]; 29.2 µM (inactive) in [17]; 28.5 µM (inactive) in test [7]; 20.6 µM (inactive) in [8]; 19.3 µM (inactive) in [9]. In addition, the GI50 in test [18] is 24.8 µM (inactive); in [19] it was 26.4 µM (inactive); in [10], 23.4 µM (inactive); in test [11] it was 20.4 µM (inactive); in test [12], 23.4 µM (inactive); in test [13], 25.2 µM (inactive). Moreover, the GI50 in test [20] was 25.4 µM (inactive).
